Reference: patent publication US11447638B2, “Acetalanthraquinone derivatives useful for cellular staining” (BIOSTATUS LIMITED, priority 2016, dated 2022)
Each block holds one molecule with its values, some of them ahead of it.

Columns and labels:
[1] = system: U-2 OS cells; experiment: Confocal laser scanning microscopy (CLSM) localisation analysis; assay type: cell-based, human; conditions: 30 min incubation, Ex 637 nm, Em >665 nm; for subcellular localisation by CLSM: FIG. 4 and 5
Protocol: Confocal laser scanning microscopy (CLSM) was used to analyse the localisation of compounds BST-100, BST-101 and BST-106 with the U-2 OS cells, as it permitted the acquisition of volume limited optical sections through the cell and media. Excitation (637 nm) and emission (>665 nm) values for the probe analysis were the optimal conditions. The data sets obtained were processed and assembled into a single maximum projection image.
The patterns were analysed after 30 min incubation at different z depths and eliminating the solution background. The nucleus/cytoplasm ratio was calculated to quantify the localisation of the probe per cell.
A Radiance CLSM (BioRad Microscience) was used attached to an inverted Nikon microscope. Image acquisition was performed using excitation (637 nm) and emission (>665 nm) wavelengths. The histogram plot reports the nucleus/cytoplasm index to determine DNA binding in live cells. The calibration bar represents 10 μm.
The compounds BST-108, BST-109 were analysed in the same way.

[2] = system: fixed human osteosarcoma U-2 OS cells; experiment: Labelling of fixed cells, wide-field fluorescence microscopy; assay type: cell-based; conditions: 20 μM, 1 h exposure in PBS, FIG. 2
Protocol: Cells were seeded in a 24 well coverslip bottomed-plate, cultured overnight in McCoys media. 24 or 48 hours later the cells were washed gently with 3×2 mL PBS per well. The PBS was removed and 0.5 mL of 4% paraformaldehyde solution [a 4% paraformaldehyde solution in PBS was made fresh each time from a 16% stock solution (Thermo Fisher Scientific)] was added in each well and cells were incubated for 30 min. The paraformaldehyde was removed and cells were washed 3×2 mL PBS per well. 1 mL of PBS or HEPES was added to each well.
(§1) Before analysis, cells were incubated at 37° C. in the dark for the period designated. Samples were analysed directly without any further washing step. For live cell labelling cells were seeded, plated in a similar way, into a similar multi-well dish for optimal optical performance and could be used across all microscope platforms.
(§2) This basic protocol was the standard for testing the patterns of AAQ agents at 20 μM, compared to 20 μM of DRAQ5 as the benchmark reference (both in terms of cellular location and ability to detect the red fluorescence).
Low resolution wide-field fluorescence microscopy was used to evaluate cell labelling in fixed human osteosarcoma U-2 OS cells. The system was an Axiovert 100 microscope (Carl Zeiss, Welwyn Garden City, UK) ×10 0.3 NA air objective lens and an ORCA-ER CCD camera (Hamamatsu, Reading, UK). Illumination was controlled by a shutter in front of the transmission lamp. Image capture was controlled using Metamorph software. This evaluates the ability of the compounds to label cellular compartments without active uptake or efflux prohibiting delivery into the given cell. Image collection was performed after 1 h of exposure to probes in PBS. The calibration bar represents 50 μm.

[3] = system: A549 live cells; experiment: Loading of A549 live cells, wide-field fluorescence microscopy; assay type: cell-based, human; conditions: 20 μM, 30 min incubation, FIG. 3
Protocol: as §1, §2
Low resolution wide-field fluorescence microscopy was used to evaluate cell uptake and localisation of the probe compounds. The system was an Axiovert 100 microscope (Carl Zeiss, Welwyn Garden City, UK) ×10 0.3 NA air objective lens and an ORCA-ER CCD camera (Hamamatsu, Reading, UK). Illumination was controlled by a shutter in front of the transmission lamp. Image capture was controlled using Metamorph software. Human non-small cell lung cancer A549 cell line was used as the cell model to determine whether variation of the probe loading and localisation occurred in cell population sustaining a “side population” (SP) (Smith P J, Wiltshire M, Chappell S C, Cosentino L, Burns P A, Pors K, Errington R J. Kinetic analysis of intracellular Hoechst 33342—DNA interactions by flow cytometry: misinterpretation of side population status? Cytometry A 2013; 83:161-9) with a known capacity to efflux xenobiotic molecules, including the DNA dye Hoechst 33342.
Cells were incubated for 30 min with each compound and then images were collected at a 30 ms exposure time using low resolution wide-field fluorescence microscopy. Using an Axiovert 100 microscope (Carl Zeiss, Welwyn Garden City, UK) ×10 0.3 NA air objective lens and an ORCA-ER CCD camera (Hamamatsu, Reading, UK). Illumination was controlled by a shutter in front of the transmission lamp. Image capture was controlled using Metamorph software. The calibration bar represents 50 μm.

[4] = system: MCF7; experiment: MTT cellular viability (growth inhibition) assay, MCF7; assay type: cell-based; conditions: Homo sapiens, 0.25-100 μM, 72 h, Table 3
Protocol: (§3) The viability of A549 or MCF7 in response to compounds was determined using the MTT (3-(4,5-dimethylthiazolyl-2-)-2, 5-diphenyltetrazolium bromide) assay according to the protocol set out in Mosmann T., Rapid colorimetric assay for cellular growth and survival: application to proliferation and cytotoxicity assays. Journal of immunological methods 1983; 65:55-63.
(§4) Initially, cells were seeded into a rounded-bottom 96 well plate (Corning) at six different cell seeding densities (0.5×104, 1×104, 2×104, 3×104, 4×104, and 5×104) per mL of R10 media (cells/mL) in order to optimise the assay and establish the most suitable seeding assay. Concentration of 1×10^4 cells/mL was determined to be the optimum seeding density for both cell lines for 96 h total incubation. A control lane contained supplemented R10 only. The 96 well plates were incubated overnight at 37° C., 5% CO2 and 100% humidity to allow cell adhesion. Cells were then treated respectively with novel AAQs (0.25-100 μM) or growth inhibition (IC50) of compounds of the invention was studied against MCF7 and A549 cancer cell lines. Compounds were tested with a concentration range between 0.25 and 100 μM for 72 h and doxorubicin, as positive cytotoxic control, was tested in parallel at the same doses.

[5] = system: A549 cells; experiment: Flow cytometry analysis of cell uptake before/after hydrolysis; assay type: cell-based, human; conditions: 20 μM, 30 min; for % ile (25): low loader cell population
Protocol: Flow cytometry analysis was performed to evaluate the effect of pre-treatment with HCl to generate an active aldehyde on the cell uptake properties. A549 cells were incubated for 30 min with compounds of Formula (I) and its hydrolysed forms (20 μM) prior to analysis. The rate of uptake was tested in A549 cell culture media and in Aldefluor buffer, containing the MDR-blocker verapamil (Pearce and Bonnet 2007), to evaluate the effect in uptake with/without the Aldefluor assay system. Analysis was conducted in the viable subset of cells, corresponding to ˜95% of the total amount under investigation.
Aldefluor buffer contained verapamil vs. cell media. The cells were incubated with 20 μM of the respective AAQ/HAAQs (30 min) before analysis
Statistical analysis of A549 uptake before/after hydrolysis was also studied. Experiments were performed in cell media versus Aldefluor buffer. Data were processed using FlowJo software (Tree Star). DRAQ5 was used to set the dynamic range and as control dye and empty cells were used to determine auto-fluorescence.

[6] = system: A549; experiment: MTT cellular viability (growth inhibition) assay, A549; assay type: cell-based; conditions: Homo sapiens, 0.25-100 μM, 72 h, Table 3
Protocol: as §3, §4

[7] = Absorption and fluorescence spectra of compounds in PBS or HEPES; assay type: physicochemical; conditions: for peak excitation wavelength: excitation wavelength used for fluorescence spectra of FIG. 1A/1B; for fluorescence emission, 540 nm (Ex in PBS): excited at 540 nm; for fluorescence emission, 540 nm (Ex in PBS) / fluorescence emission, λ1 nm (Ex in HEPES) / fluorescence emission, λ1 nm (Ex in PBS): 20 μM; for fluorescence emission, λ1 nm (Ex in HEPES) / fluorescence emission, λ1 nm (Ex in PBS): excited at absorption peak 1 (λ1)
Protocol: The compounds were exited at 540 nm and at the wavelength of their absorption peak 1 (λ1 nm). The far-red fluorescent DNA dye DRAQ5 was used as reference.
Compounds were dissolved in DMSO (Sigma) to 20 mM stock concentration. DRAQ5 (Biostatus Ltd) was used as a control anthraquinone agent dissolved in deionised water. Working solutions were prepared in PBS (phosphate buffered saline; Sigma) or HEPES (4-(2-hydroxyethyl)-1-piperazineethanesulfonic acid; Sigma) at 20 or 40 μM. Probe solutions (20 μM), respectively in PBS or HEPES, were pipetted into a 1 mL quartz cuvette (Thermo Fisher Scientific). After obtaining baseline spectra in relevant buffer to zero the instrument, absorbance measurements were obtained using a Beckmann Coulter DU 800 UV/Visible spectrophotometer. The excitation wavelengths were scanned from 280 to 800 nm. Fluorescent spectral scans were performed using a Perkin Elmer LS-50B Luminescence spectrophotometer. To obtain emission scans, the excitation wavelength was set accordingly to the maximum values for each agent or another designated excitation wavelength that matches typical laser lines; and the emission wavelength were scanned from 400 nm to 900 nm in 1 nm increments. A Xenon flash lamp was used as the light source, with the lamp energy set to high. For each data point ten measurements were acquired with the photomultiplier tube sensitivity set at 125.
Compounds were excited at a wavelength corresponding to the first absorbance peak 1 (FIG. 1A and FIG. 1B show absorption (line) and fluorescence (dots) spectra of compounds; both are normalised to peak value.

[8] = system: 2780AD; experiment: Further tests against cell lines, 2780AD; assay type: cell-based; conditions: ratio to A2780
Protocol: (§5) Further tests were carried out against A2780, 2780AD and MCP1 cell lines.

[9] = system: MCP1; experiment: Further tests against cell lines, MCP1; assay type: cell-based; conditions: ratio to A2780
Protocol: as §5

[10] = system: 2780/cp70; experiment: Further tests against cell lines, 2780/cp70; assay type: cell-based; conditions: ratio to A2780
[11] = solution: Aldefluor buffer with verapamil

IC50 [4]: 1440 nM | IC50 [6]: 1.7 µM | peak excitation wavelength [7]: 610 nm | fluorescence emission, 540 nm (Ex in PBS) [7]: 692 nm | fluorescence emission, λ1 nm (Ex in HEPES) [7]: 684 nm | fluorescence emission, λ1 nm (Ex in PBS) [7]: 685 nm
SMILES: COC(CNC(=O)CCNc1ccc(NCCN(C)C)c2c1C(=O)c1c(O)ccc(O)c1C2=O)OC [BST-108, N-(2,2-Dimethoxyethyl)-3-(4-(2-(dimethylamino)ethylamino)-5,8-dihydroxy-9,10-dioxo-9,10-dihydroanthracen-1-ylamino)propanamide]
subcellular localisation by CLSM [1]: strong nuclear uptake and perinuclear staining, with possible ER accumulation | staining pattern in fixed cells [2]: heterogeneity in cytoplasmic staining and positive spots in the nuclei | fluorescence brightness / background in live cells [3]: very bright cellular fluorescence | Median (fluorescence, uptake) [5, 11]: 67.08 | % ile (25) [5, 11]: 57.65 | Median (fluorescence, uptake) ([5]; solution: media): 75.48 | % ile (25) ([5]; solution: media): 65.32

IC50 [4]: 1800 nM | IC50 [6]: 38.2 µM | peak excitation wavelength [7]: 610 nm | fluorescence emission, 540 nm (Ex in PBS) [7]: 684 nm | fluorescence emission, λ1 nm (Ex in HEPES) [7]: 684 nm | fluorescence emission, λ1 nm (Ex in PBS) [7]: 684 nm
SMILES: COC(CC(=O)NCCNc1ccc(NCCN(C)C)c2c1C(=O)c1c(O)ccc(O)c1C2=O)OC [BST-111, N-(2-(4-(2-(Dimethylamino)ethylamino)-5,8-dihydroxy-9,10-dioxo-9,10-dihydroanthracen-1-ylamino)ethyl)-3,3-dimethoxypropanamide]
specific feature of localisation by CLSM [1]: mainly loaded in the nuclear compartment | subcellular localisation by CLSM [1]: strong nuclear uptake and perinuclear staining, with possible ER accumulation | fluorescence brightness / background in fixed cells [2]: very high background fluorescence | staining pattern in fixed cells [2]: cytoplasmic staining and heterogeneity on labelling of mitotic figures | staining pattern in live cells [3]: greater contrast and diffuse cellular staining | Median (fluorescence, uptake) [5, 11]: 74.94 | % ile (25) [5, 11]: 64.64 | Median (fluorescence, uptake) ([5]; solution: media): 72.42 | % ile (25) ([5]; solution: media): 62.72

SMILES: COC(CNCCCCCCNc1ccc(NCCCCCCNCC(OC)OC)c2c1C(=O)c1c(O)ccc(O)c1C2=O)OC [BST-300]
RF (2780AD) [8]: 1.07 | RF (MCP1) [9]: 0.37 | RF (2780/cp70) [10]: 0.17

SMILES: COC(CNCCCCCCNc1ccc(NCCN(C)C)c2c1C(=O)c1c(O)ccc(O)c1C2=O)OC [BST-301, 1-((6-((2,2-dimethoxyethyl)amino)hexyl)amino)-4-((2-(dimethylamino)ethyl)amino)-5,8-dihydroxyanthracene-9,10-dione]
RF (2780AD) [8]: 2.8 | RF (MCP1) [9]: 0.39 | RF (2780/cp70) [10]: 0.10

SMILES: COC(CNCCNc1ccc(NCCN(C)C)c2c1C(=O)c1c(O)ccc(O)c1C2=O)OC [BST-302, 1-((2-((2,2-dimethoxyethyl)amino)ethyl)amino)-4-((2-(dimethylamino)ethyl)amino)-5,8-dihydroxyanthracene-9,10-dione]
RF (2780AD) [8]: 81.4 | RF (MCP1) [9]: 0.61 | RF (2780/cp70) [10]: 0.32

SMILES: COC(CNCCCNc1ccc(NCCN(C)C)c2c1C(=O)c1c(O)ccc(O)c1C2=O)OC [BST-303, 1-((3-((2,2-dimethoxyethyl)amino)propyl)amino)-4-((2-(dimethylamino)ethyl)amino)-5,8-dihydroxyanthracene-9,10-dione]
RF (2780AD) [8]: 9.7 | RF (MCP1) [9]: 0.36 | RF (2780/cp70) [10]: 0.19

SMILES: COC(CNCCCCNc1ccc(NCCN(C)C)c2c1C(=O)c1c(O)ccc(O)c1C2=O)OC [BST-304, 1-((4-((2,2-dimethoxyethyl)amino)butyl)amino)-4-((2-(dimethylamino)ethyl)amino)-5,8-dihydroxyanthracene-9,10-dione]
RF (2780AD) [8]: 11.8 | RF (MCP1) [9]: 0.36 | RF (2780/cp70) [10]: 0.07

SMILES: COC(CNCCCCCNc1ccc(NCCN(C)C)c2c1C(=O)c1c(O)ccc(O)c1C2=O)OC [BST-305, 1-((5-((2,2-dimethoxyethyl)amino)pentyl)amino)-4-((2-(dimethylamino)ethyl)amino)-5,8-dihydroxyanthracene-9,10-dione]
RF (2780AD) [8]: 5.2 | RF (MCP1) [9]: 0.53 | RF (2780/cp70) [10]: 0.14
